This assay addresses Signal transducer and activator of transcription 3 (Homo sapiens, UniProt P40763). Briefly: Inhibition of STAT3 phosphorylation in human MDA-MB-231 cells by sandwich ELISA. On the technique in general: An ELISA detects its analyte on a solid surface through an enzyme-linked reagent.

Sequence of Signal transducer and activator of transcription 3 (P40763 whole entry): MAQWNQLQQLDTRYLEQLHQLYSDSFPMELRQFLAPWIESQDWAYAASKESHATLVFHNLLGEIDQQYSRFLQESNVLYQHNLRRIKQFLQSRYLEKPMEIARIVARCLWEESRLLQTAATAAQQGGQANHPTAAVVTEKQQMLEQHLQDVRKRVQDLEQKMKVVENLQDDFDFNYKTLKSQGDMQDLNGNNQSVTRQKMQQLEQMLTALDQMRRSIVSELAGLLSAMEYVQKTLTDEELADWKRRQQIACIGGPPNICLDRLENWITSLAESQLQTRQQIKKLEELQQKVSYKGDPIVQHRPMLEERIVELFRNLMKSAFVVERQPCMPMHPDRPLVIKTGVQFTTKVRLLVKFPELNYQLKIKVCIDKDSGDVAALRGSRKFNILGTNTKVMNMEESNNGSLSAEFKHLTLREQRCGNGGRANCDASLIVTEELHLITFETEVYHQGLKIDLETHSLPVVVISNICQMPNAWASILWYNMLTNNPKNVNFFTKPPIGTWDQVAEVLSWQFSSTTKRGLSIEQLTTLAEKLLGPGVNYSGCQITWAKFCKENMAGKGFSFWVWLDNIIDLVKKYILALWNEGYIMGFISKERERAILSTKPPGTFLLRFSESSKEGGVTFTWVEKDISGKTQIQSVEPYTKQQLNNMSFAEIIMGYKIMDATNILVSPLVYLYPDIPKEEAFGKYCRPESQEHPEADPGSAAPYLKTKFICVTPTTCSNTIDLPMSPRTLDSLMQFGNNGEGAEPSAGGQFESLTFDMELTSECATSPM

A word on the IC50: it is the concentration needed to halve the response being measured. With `CC(C)(C)OC(=O)c1ccc(NC(=O)c2cccc(S(N)(=O)=O)c2)cc1`, 920 nM corresponded to half-maximal inhibition (IC50).
The value for `CC(C)(C)OC(=O)c1ccc(NC(=O)c2ccc(Cl)c(S(N)(=O)=O)c2)cc1` was 230 nM; that for `O=C(Nc1ccc([N+](=O)[O-])cc1Cl)c1cc(Cl)ccc1O` [5-chloro-N-(2-chloro-4-nitrophenyl)-2-hydroxybenzamide] was 210 nM.
For `COc1cc(NC(=O)c2ccc(Cl)c(S(N)(=O)=O)c2)cc(OC)c1OC`, the IC50 came to 720 nM.

The values above are taken from BindingDB's records for doi:10.1016/j.ejmech.2021.113362 (The First Affiliated Hospital of Wenzhou Medical University, 2021).
